Assay results reported in patent US20150344540A1, “NOVEL GLP-1 RECEPTOR AGONISTS WITH CHOLESTEROL EFFLUX ACTIVITY” (NOVO NORDISK A/S, priority 2012, published 2015).
Read-outs that look alike come from different tables or passages of the source. Where a SMILES comes first, the peptide text is derived from it. [ ]: non-standard residue; d: D form. Aib = CC(C)(N)C(=O)O

Experiments:
[1] = test system: Mouse monocyte/macrophage cell line, RAW 264.7; experiment: Cholesterol efflux assay (3H-cholesterol, macrophage cell line); format: cell-based; conditions: RAW 264.7, 4 hrs incubation, 0.1% human serum albumin; for 4 h Cholesterol Efflux Emax: ABCA1-mediated efflux
human GLP-1 receptor = human GLP-1 receptor (Homo sapiens, UniProt P43220); experiment: Functional GLP-1 receptor assay, in vitro potency (CRE luciferase; whole cells); format: cell-based; conditions: BHK cells expressing human GLP-1 receptor
[2] = Pharmacokinetics in mini-pigs after i.v. administration; conditions: female, Göttingen, minipig, iv, 5 nmol/kg
Description: The aim of the study is to assess the pharmacokinetic properties of the compounds of the invention, in mini-pigs.
Göttingen mini-pigs female, 15-20 kg, purchased from Ellegaard Mini-pigs, Denmark, were housed in the Animal Unit, Novo Nordisk A/S and were kept and handled according to normal procedure in the Animal Unit. After minimum 2 weeks of acclimatization two permanent central venous catheters were implemented in vena cava caudalis in each animal. After surgery the animals were in their normal individual pens during the pharmacokinetic experiments.
Intravenous injections were given through the central short catheter, which was flushed with min 10 ml of sterile saline post administration. The test substance was dosed at 5 nmol/kg, N=3, in a volume of 0.05 ml/kg.
On day 1 the catheters are coupled to extension tubes, which will be removed at the end of day 1.
Samples were kept on wet ice until centrifugation (10 min, 4° C., 1942 g). Afterwards, plasma (min. 100 μl) was transferred immediately to Micronic tubes and kept at −20° C. until analysis. The plasma samples were analysed by an immunoaasay described below.
The plasma concentrations of the peptides with intact N-terminus were determined using a Luminescence Oxygen Chanelling Immuno-assay (LOCI). The donor beads were coated with streptavidin, while acceptor beads were conjugated with a monoclonal antibody recognizing a mid-/C-terminal epitope of the peptide. The other monoclonal antibody, specific for the N-terminus, was biotinylated. The three reactants were combined with the analyte and formed a two-sited immuno-complex. Illumination of the complex released singlet oxygen atoms from the donor beads, which were channeled into the acceptor beads and triggered chemi-luminescence which was measured in an Envision plate reader. The amount of light was proportional to the concentration of the compound.
Plasma concentration-time profiles was analysed by a non-compartmental pharmacokinetics analysis using Phoenix (Pharsight Inc., Mountain View, Calif., USA). Calculations were performed using individual concentration-time values from each animal.

[3] = 0% HSA, read-out: GLP1R CRE luc 0% HSA EC50 Mean Value
[4] = plasma, T1/2 Mean Value, Göttingen mini-pigs, N=3

Sequence of human GLP-1 receptor (P43220 24-463): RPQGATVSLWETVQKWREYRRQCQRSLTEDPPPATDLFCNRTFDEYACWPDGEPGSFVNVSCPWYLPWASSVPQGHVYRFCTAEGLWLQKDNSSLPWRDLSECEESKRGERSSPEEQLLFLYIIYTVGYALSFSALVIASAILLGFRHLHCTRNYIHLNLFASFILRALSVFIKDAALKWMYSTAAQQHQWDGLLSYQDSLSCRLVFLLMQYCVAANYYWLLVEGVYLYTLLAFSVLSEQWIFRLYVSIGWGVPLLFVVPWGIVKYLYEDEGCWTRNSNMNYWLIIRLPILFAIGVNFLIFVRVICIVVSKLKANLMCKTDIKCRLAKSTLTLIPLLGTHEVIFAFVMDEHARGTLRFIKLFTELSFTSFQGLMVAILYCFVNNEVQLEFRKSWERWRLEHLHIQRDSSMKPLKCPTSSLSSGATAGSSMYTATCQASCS

| EC50 (human GLP-1 receptor; [3]) | C0 ([2]; plasma) | Vd ([2]; plasma) | clearance ([2]; plasma) | half-life ([2]; plasma, T1/2, mini-pigs) | half-life [2, 4] | EC50 (human GLP-1 receptor; GLP1R CRE luc 1% HSA EC50 Mean Value, 1% HSA) | C0 ([2]; in vivo) | Vd ([2]; in vivo) | clearance ([2]; in vivo) | half-life ([2]; in vivo) | SMILES | 4 h Cholesterol Efflux Emax [1] | EC50 ([1]; read-out: 4 h Cholesterol Efflux EC50, ABCA1-mediated efflux (CPT-cAMP induced minus non-induced)) |
| --- | --- | --- | --- | --- | --- | --- | --- | --- | --- | --- | --- | --- | --- |
| 0.163 nM | 79.7 nM | 0.152 L/kg | 3.09 mL/h/kg | 32.8 h | 32.9 h |  |  |  |  |  | CC[C@H](C)[C@H](NC(=O)[C@H](Cc1ccccc1)NC(=O)[C@H](CCC(=O)O)NC(=O)[C@H](CCCCN)NC(=O)[C@H](C)NC(=O)[C@H](C)NC(=O)[C@H](CCC(=O)O)NC(=O)CNC(=O)[C@H](CCC(=O)O)NC(=O)[C@H](CC(C)C)NC(=O)[C@H](Cc1ccc(O)cc1)NC(=O)[C@H](CO)NC(=O)[C@H](CO)NC(=O)[C@@H](NC(=O)[C@H](CC(=O)O)NC(=O)[C@H](CO)NC(=O)[C@@H](NC(=O)[C@H](Cc1ccccc1)NC(=O)[C@@H](NC(=O)CNC(=O)[C@H](CCC(=O)O)NC(=O)C(C)(C)NC(=O)[C@@H](N)Cc1c[nH]cn1)[C@@H](C)O)[C@@H](C)O)C(C)C)C(=O)N[C@@H](C)C(=O)N[C@@H](Cc1c[nH]c2ccccc12)C(=O)N[C@@H](CC(C)C)C(=O)N[C@H](C(=O)N[C@@H](CCC(=O)O)C(=O)N[C@@H](CCCCN)C(=O)NC(C)(C)C(=O)N[C@@H](CCCCN)C(=O)N[C@@H](CCC(=O)O)C(=O)N[C@@H](Cc1ccccc1)C(=O)N[C@@H](CC(C)C)C(N)=O)C(C)C [Compound 8, [Aib8,Glu23,Glu34,Lys35,Aib36,Lys37]-GLP-1-(7-37)-peptidyl-Glu-Phe-Leu amide] (H-H[Aib]EGTFTSDVSSYLEGEAAKEFIAWLVEK[Aib]KEFL-NH2) | 100% |  |
| 0.015 nM | 115 nM | 0.0613 L/kg | 54.9 mL/h/kg |  | 0.8 h | 0.004 nM |  |  |  |  | CC[C@H](C)[C@H](NC(=O)[C@H](Cc1ccccc1)NC(=O)[C@H](CCC(=O)O)NC(=O)[C@H](CCCCN)NC(=O)[C@@H](NC(=O)[C@H](C)NC(=O)[C@H](CCC(=O)O)NC(=O)CNC(=O)[C@H](CCC(=O)O)NC(=O)[C@H](CC(C)C)NC(=O)[C@H](Cc1ccc(O)cc1)NC(=O)[C@H](CO)NC(=O)[C@H](CO)NC(=O)[C@@H](NC(=O)[C@H](CC(=O)O)NC(=O)[C@H](CO)NC(=O)[C@@H](NC(=O)[C@H](Cc1ccccc1)NC(=O)[C@@H](NC(=O)CNC(=O)[C@H](CCC(=O)O)NC(=O)C(C)(C)NC(=O)[C@@H](N)Cc1c[nH]cn1)[C@@H](C)O)[C@@H](C)O)C(C)C)C(C)C)C(=O)N[C@@H](C)C(=O)N[C@@H](Cc1c[nH]c2ccccc12)C(=O)N[C@@H](CC(C)C)C(=O)N[C@H](C(=O)N[C@@H](CCC(=O)O)C(=O)N[C@@H](CCCCN)C(=O)NC(C)(C)C(=O)N[C@@H](CCCCN)C(N)=O)C(C)C [Compound 11, [Aib8,Glu23,Val25,Glu34,Lys35,Aib36,Lys37]-GLP-1-(7-37)-peptide amide] (H-H[Aib]EGTFTSDVSSYLEGEAVKEFIAWLVEK[Aib]K-NH2) | 135% |  |
|  | 131 nM | 0.0878 L/kg | 2.68 mL/h/kg |  | 24 h |  |  |  |  |  | CC[C@H](C)[C@H](NC(=O)[C@H](Cc1ccccc1)NC(=O)[C@H](CCC(=O)O)NC(=O)[C@H](CCCCN)NC(=O)[C@@H](NC(=O)[C@H](CCCCN)NC(=O)[C@H](CCC(=O)O)NC(=O)CNC(=O)[C@H](CCC(=O)O)NC(=O)[C@H](CC(C)C)NC(=O)[C@H](Cc1ccc(O)cc1)NC(=O)[C@H](CO)NC(=O)[C@H](CO)NC(=O)[C@@H](NC(=O)[C@H](CC(=O)O)NC(=O)[C@H](CO)NC(=O)[C@@H](NC(=O)[C@H](Cc1ccccc1)NC(=O)[C@@H](NC(=O)CNC(=O)[C@H](CCC(=O)O)NC(=O)C(C)(C)NC(=O)[C@@H](N)Cc1c[nH]cn1)[C@@H](C)O)[C@@H](C)O)C(C)C)C(C)C)C(=O)N[C@@H](CCC(=O)O)C(=O)N[C@@H](Cc1c[nH]c2ccccc12)C(=O)N[C@@H](CC(C)C)C(=O)N[C@H](C(=O)N[C@@H](CCC(=O)O)C(=O)N[C@@H](CCCCN)C(=O)NC(C)(C)C(=O)N[C@@H](CCCCN)C(=O)N[C@@H](CCC(=O)O)C(=O)N[C@@H](Cc1ccccc1)C(=O)N[C@@H](CC(C)C)C(N)=O)C(C)C [Compound 49, [Aib8,Glu23,Lys24,Val25,Glu30,Glu34,Lys35,Aib36,Lys37]-GLP-1-(7-37)-peptidyl-Glu-Phe-Leu amide] (H-H[Aib]EGTFTSDVSSYLEGEKVKEFIEWLVEK[Aib]KEFL-NH2) | 123% |  |
|  | 136 nM | 0.0802 L/kg | 1.31 mL/h/kg |  | 40.7 h |  |  |  |  |  | CC[C@H](C)[C@H](NC(=O)[C@H](Cc1ccccc1)NC(=O)[C@H](CCC(=O)O)NC(=O)[C@H](CCCCN)NC(=O)[C@@H](NC(=O)[C@H](C)NC(=O)[C@H](CCC(=O)O)NC(=O)CNC(=O)[C@H](CCC(=O)O)NC(=O)[C@H](CC(C)C)NC(=O)[C@H](Cc1ccc(O)cc1)NC(=O)[C@H](CO)NC(=O)[C@H](CO)NC(=O)[C@@H](NC(=O)[C@H](CC(=O)O)NC(=O)[C@H](CO)NC(=O)[C@@H](NC(=O)[C@H](Cc1ccccc1)NC(=O)[C@@H](NC(=O)CNC(=O)[C@H](CCC(=O)O)NC(=O)C(C)(C)NC(=O)[C@@H](N)Cc1c[nH]cn1)[C@@H](C)O)[C@@H](C)O)C(C)C)C(C)C)C(=O)N[C@@H](C)C(=O)N[C@@H](Cc1c[nH]c2ccccc12)C(=O)N[C@@H](CC(C)C)C(=O)N[C@H](C(=O)N[C@@H](CCC(=O)O)C(=O)N[C@@H](CCCCN)C(=O)NC(C)(C)C(=O)N[C@@H](CCCCN)C(=O)N[C@@H](CCC(=O)O)C(=O)N[C@@H](Cc1ccccc1)C(=O)N[C@@H](CC(C)C)C(=O)N[C@@H](CCC(=O)O)C(=O)N[C@@H](CCCCN)C(=O)N[C@H](C(N)=O)C(C)C)C(C)C [Compound 54, [Aib8,Glu23,Val25,Glu34,Lys35,Aib36,Lys37]-GLP-1-(7-37)-peptidyl-Glu-Phe-Leu-Glu-Lys-Val amide] | 121% |  |
|  | 53.3 nM | 0.27 L/kg | 5.9 mL/h/kg |  | 31.8 h |  |  |  |  |  | CC[C@H](C)[C@H](NC(=O)[C@H](Cc1ccccc1)NC(=O)[C@H](CCC(=O)O)NC(=O)[C@H](CCCCN)NC(=O)[C@@H](NC(=O)[C@H](C)NC(=O)[C@H](CCC(=O)O)NC(=O)CNC(=O)[C@H](CCC(=O)O)NC(=O)[C@H](CC(C)C)NC(=O)[C@H](Cc1ccc(O)cc1)NC(=O)[C@H](CO)NC(=O)[C@H](CO)NC(=O)[C@@H](NC(=O)[C@H](CC(=O)O)NC(=O)[C@H](CO)NC(=O)[C@@H](NC(=O)[C@H](Cc1ccccc1)NC(=O)[C@@H](NC(=O)CNC(=O)[C@H](CCC(=O)O)NC(=O)C(C)(C)NC(=O)[C@@H](N)Cc1c[nH]cn1)[C@@H](C)O)[C@@H](C)O)C(C)C)C(C)C)C(=O)N[C@@H](C)C(=O)N[C@@H](Cc1c[nH]c2ccccc12)C(=O)N[C@@H](CC(C)C)C(=O)N[C@H](C(=O)N[C@@H](CCC(=O)O)C(=O)N[C@@H](CCCCN)C(=O)NC(C)(C)C(=O)N[C@@H](CCCCN)C(=O)N[C@@H](CCC(=O)O)C(=O)N[C@@H](Cc1ccccc1)C(=O)N[C@@H](CC(C)C)C(=O)N[C@@H](CCC(=O)O)C(=O)N[C@@H](CCCCN)C(=O)N[C@H](C(=O)N[C@@H](CCCCN)C(=O)N[C@@H](CCC(=O)O)C(=O)N[C@@H](Cc1ccccc1)C(N)=O)C(C)C)C(C)C [Compound 61] | 82% |  |
|  |  |  |  |  |  |  | 95.8 nM | 0.0921 L/kg | 1.2 mL/h/kg | 53.2 h | CC[C@H](C)[C@H](NC(=O)[C@H](Cc1ccccc1)NC(=O)[C@H](CCC(=O)O)NC(=O)[C@H](CCCCN)NC(=O)[C@@H](NC(=O)[C@H](C)NC(=O)[C@H](CCC(=O)O)NC(=O)CNC(=O)[C@H](CCC(=O)O)NC(=O)[C@H](CC(C)C)NC(=O)[C@H](Cc1ccc(O)cc1)NC(=O)[C@H](CO)NC(=O)[C@H](CO)NC(=O)[C@@H](NC(=O)[C@H](CC(=O)O)NC(=O)[C@H](CO)NC(=O)[C@@H](NC(=O)[C@H](Cc1ccccc1)NC(=O)[C@@H](NC(=O)CNC(=O)[C@H](CCC(=O)O)NC(=O)C(C)(C)NC(=O)[C@@H](N)Cc1c[nH]cn1)[C@@H](C)O)[C@@H](C)O)C(C)C)C(C)C)C(=O)N[C@@H](C)C(=O)N[C@@H](Cc1c[nH]c2ccccc12)C(=O)N[C@@H](CC(C)C)C(=O)N[C@H](C(=O)N[C@@H](CCC(=O)O)C(=O)N[C@@H](CCCCN)C(=O)NC(C)(C)C(=O)N[C@@H](CCCCN)C(=O)N[C@@H](CCC(=O)O)C(=O)N[C@@H](Cc1ccccc1)C(=O)N[C@@H](CC(C)C)C(=O)N[C@@H](CCC(=O)O)C(=O)N[C@@H](CCCCN)C(=O)O)C(C)C [Compound 99, [Aib8,Glu23,Val25,Glu34,Lys35,Aib36,Lys37]-GLP-1-(7-37)-peptidyl-Glu-Phe-Leu-Glu-Lys] | 99% | 290 nM |
